Measured values reported in patent US10201588B2, “Materials and methods of treating dyslipidemia” (UNIVERSITY OF MIAMI, priority 2017, dated 2019).
Marks after values point to notes of the source that are not given here.

Columns and labels:
T1D rats [1] = assay: Plasma metabolites, lipids, glucose regulatory hormones and chemokines in T1D rats; assay type: in vivo, rat
Protocol: T1 Diabetes Animal Model. Wistar rats (male, 200-250 g, Envigo RMS, Inc.) were rendered diabetic with a single dose of streptozotocin (STZ, 50 mg/kg body weight, i.p.). Once rats became hyperglycemic (>350 mg/dl plasma glucose, usually 3-4 days post STZ injection), they were divided into two groups, with and without treatment with the GHRH antagonist MIA-602 ([…], s.c.) administered three times a week for 14 weeks after establishment of diabetes. Untreated animals received vehicle alone with the same regimen. Upon completion of the 14 weeks period, animals were placed in metabolic cages for 3 days for adaptation, allowing them free movement, water and food intake. During the entire experiment, rats were fed regular rat chow (Teklad Diet, Madison, Wis.) and received water ad libitum. On the third day in the metabolic cages, food and water intake was monitored for a period of 24 hours. 24-hour urine specimens were also collected, centrifuged at 400×g for 5 minutes for particulate removal, aliquoted and stored at −80° C. Animals were then euthanized in the morning around 10 am in a fed state, under deep anesthesia with isoflurane, by exsanguination, followed by removal of vital organs. Plasma was separated from heparinized blood samples, aliquoted and saved at −80° C. for further analysis. Rats were handled according to high ethical and scientific standards for laboratory animals, and our protocol was reviewed and approved by the Institutional Animal Care and Use Committee at the Medical College of Georgia at Augusta University.
(§1) Determination of metabolites. ApoB-48 lipoprotein was measured in plasma samples from rats and in culture medium supernatant from IEC by the use of a commercial ELISA kit (MyBioSource). The VLDL/LDL Cholesterol Assay kit (Abcam), the Total Cholesterol Assay kit (Wako) and the PicoProbe Triglyceride Quantification Assay Kit (Abcam) were used for analysis of VLDL/LDL fractions, total cholesterol and triglycerides in plasma samples. Albumin and creatinine levels in urine were analyzed by the use of Nephrat II and Creatinine Companion (Exocell) assay kits, respectively. Chemokines and glucose regulatory hormones (MCP-1, insulin, amylin, GIP and glucagon) were analyzed using the MILLIPLEX MAP Rat Metabolic Hormone Magnetic Bead Panel—Metabolism Multiplex Assay (RMHMAG-84K, EMD Millipore). Levels of growth hormone (GH) were assay with Rat Growth Hormone ELISA kit (EMD Millipore). Glucose levels were measured in blood by AlphaTRAK Blood Glucose Monitoring System.

GHRH receptor = assay: Western blot of GHRH receptor expression in jejunum-ileum of T1D rats; assay type: in vivo, rat; settings: diabetic rats, MIA-602 25 μg/kg s.c. three times a week for fourteen weeks, vs vehicle diabetic
Protocol: (§2) T1 Diabetes Animal Model. Wistar rats (male, 200-250 g, Envigo RMS, Inc.) were rendered diabetic with a single dose of streptozotocin (STZ, 50 mg/kg body weight, i.p.). Once rats became hyperglycemic (>350 mg/dl plasma glucose, usually 3-4 days post STZ injection), they were divided into two groups, with and without treatment with the GHRH antagonist MIA-602 ([…], s.c.) administered three times a week for 14 weeks after establishment of diabetes. Untreated animals received vehicle alone with the same regimen. Upon completion of the 14 weeks period, animals were placed in metabolic cages for 3 days for adaptation, allowing them free movement, water and food intake. […] On the third day in the metabolic cages, food and water intake was monitored for a period of 24 hours. […]
(§3) The entire small intestine was removed and its length was measured from the pylorus to the ileocecal junction. […] Proteins were detected with the following antibodies: GHRH receptor (Abcam), GLP-1 receptor (Santa Cruz Inc), α-sma (Sigma-Aldrich), or β-actin (Sigma-Aldrich). Data obtained from Western blots were processed by ImageJ quantification software.
T1D was induced in Wistar rats (male, 320-350 g) with intraperitoneal injection of a single dose of STZ (50 mg/kg body weight). […] The entire small intestine was removed from rats, and its length was measured from the pylorus to the ileocecal junction. […]

GLP-1 receptor = assay: Western blot of GLP-1 receptor expression in T1D rats; assay type: in vivo, rat; settings: MIA-602 treatment vs augmented expression in T1D, FIG. 3A
Protocol: (§4) T1 Diabetes Animal Model. Wistar rats (male, 200-250 g, Envigo RMS, Inc.) were rendered diabetic with a single dose of streptozotocin (STZ, 50 mg/kg body weight, i.p.). Once rats became hyperglycemic (>350 mg/dl plasma glucose, usually 3-4 days post STZ injection), they were divided into two groups, with and without treatment with the GHRH antagonist MIA-602 ([…], s.c.) administered three times a week for 14 weeks after establishment of diabetes. Untreated animals received vehicle alone with the same regimen. Upon completion of the 14 weeks period, animals were placed in metabolic cages for 3 days for adaptation, allowing them free movement, water and food intake. During the entire experiment, rats were fed regular rat chow (Teklad Diet, Madison, Wis.) and received water ad libitum. On the third day in the metabolic cages, food and water intake was monitored for a period of 24 hours. 24-hour urine specimens were also collected, centrifuged at 400×g for 5 minutes for particulate removal, aliquoted and stored at −80° C. […]
as §3

[2] = test system: Rat small intestinal epithelial cells (IEC-6); assay: ApoB-48 lipoprotein secretion by cultured intestinal epithelial cells challenged with oleic acid; assay type: cell-based
Protocol: Cell culture. Rat small intestinal epithelial cells (IEC-6, ATCC® CRL-1592™) were grown in 6-well plates in DMEM medium supplemented with 10% fetal bovine serum (heat inactivated FBS, Gibco/Invitrogen), 1 mM sodium pyruvate, 2 mM L-alanyl-L-glutamine (GLUTAMAX I), 5 μg/ml insulin (Sigma-Aldrich), 100 U/ml penicillin and 100 μg/ml streptomycin at 37° C. in a 5% CO2 atmosphere. For all experiments, cells up to passage 6 were used for all experiments.
Peptide Analogs Preparation. GHRH agonist JI-34, and GHRH antagonist MIA-602 were synthesized in the laboratory of A.V.S. (23, 24) and dissolved initially in DMSO before dilution with incubation medium. The final concentration of DMSO in the medium never exceeded 0.1% v/v.
Assessment of ApoB-48 lipoprotein secretion by cultured intestinal epithelial cells. Upon confluence, cells were washed twice with serum-free DMEM medium, upon which fresh serum-free medium, supplemented with or without 5 μg/ml insulin was added. After 2 hrs of equilibration, cells were pre-treated for 1 hour with the GHRH receptor agonist JI-34 (1 μM, dissolved in DMSO), while control cells received vehicle alone, followed by addition of the GLP-1 receptor agonist (Exendin-4, 10 nM, Sigma-Aldrich). After 3 hrs, cells were treated with 0.5 mM oleic acid (OA) complexed to BSA (Sigma-Aldrich) for 3 hrs, to allow for lipid loading into ApoB-48 lipoproteins. Additional cells were pre-incubated or not for 1 h with the GLP-1 receptor antagonist Exendin 9-39 (100 nM, Sigma-Aldrich), or the GHRH antagonist MIA-602 (1 μM, dissolved in DMSO). Upon completion of treatment, medium was collected, centrifuged at 1,000×g for 3 minutes, and saved at −80° C. for further analysis.
as §1

T1D rats [3] = assay: Kidney damage in T1D rats: proteinuria (albumin/creatinine ratio) and α-sma expression in kidney cortex; assay type: in vivo, rat; settings: MIA-602 treatment vs vehicle-treated T1D
Protocol: as §2
Determination of metabolites. ApoB-48 lipoprotein was measured in plasma samples from rats and in culture medium supernatant from IEC by the use of a commercial ELISA kit (MyBioSource). The VLDL/LDL Cholesterol Assay kit (Abcam), the Total Cholesterol Assay kit (Wako) and the PicoProbe Triglyceride Quantification Assay Kit (Abcam) were used for analysis of VLDL/LDL fractions, total cholesterol and triglycerides in plasma samples. Albumin and creatinine levels in urine were analyzed by the use of Nephrat II and Creatinine Companion (Exocell) assay kits, respectively. […]

[4] = test system: thoracic aortas of T1D rats; assay: Vasodilation of thoracic aortic rings from T1D rats (acetylcholine, sodium nitroprusside); assay type: in vivo, rat; settings: three groups of animals compared, FIG. 5E
Protocol: FIG. 5A is a graph showing the measurement of proteinuria in urine from control, T1D and MIA-602/T1D rats, expressed as the albumin/creatinine ratio (n=5 per group). FIG. 5B: Upper panel: representative immunoblot of α-smooth muscle actin (α-sma) expression (a marker of fibroblast activation and renal fibrosis) in homogenates of kidney cortex.
Therefore, MCP-1 levels in the serum were analyzed. […] Both dyslipidemia and increased MCP-1 plasma levels represent risk factors for vascular endothelial dysfunction. […] Responses to the endothelial-independent vasodilator sodium nitroprusside (SNP) were similar amongst the three groups of animals (FIG. 5E).

[5] = test system: Dipeptidyl-Peptidase 4 (DPP4); assay: Plasma DPP4 activity in T1D rats (ELISA kit); assay type: in vivo, rat; settings: non-fasting state, MIA-602 treatment, FIG. 6
Protocol: Treatment with MIA-602 blunted this effect. DPP4 activity values were measured in plasma obtained from rats in the non-fasting state, by the use of a commercial ELISA kit (MyBioSource).
as §4, with “C. Animals were then euthanized in the morning around 10 am in a fed state, under deep anesthesia with isoflurane, by exsanguination, followed by removal of vital organs.” for “C.”

[6] = test system: lung microvascular endothelial cells; settings: reference (24); cited from earlier work

Phac-Ada-Ty^1-D-Arg^2-Asp^3-Ala^4-Ile^5-Phe(F)5^6-Thr^7-Ala^8-Har^9-Tyr(me)^10-His^11-Orn^12-Val^13-Leu^14-Abu^15-Glu^16-Leu^17-Ser^18-Ala^19-His^20-Orn^21-Leu^22-Leu^23-Glu^24-Asp^25-Ile^26-Nle^27-D-Arg^28-Har^29-NH2 [MIA-602]
Plasma levels of apolipoprotein B-48 (ApoB-48) (T1D rats [1]; T1D rats treated with MIA-602, FIG. 2D): blunted
Plasma levels of GIP (T1D rats [1]; T1D rats treated with MIA-602, not significant vs vehicle-treated diabetic (85.7±37.5)): 46.7 ± 9.6 pg/mL
Lipemic plasma (visual) (T1D rats [1]; T1D rats treated with MIA-602 vs vehicle, FIG. 2A): significant reduction
Total cholesterol levels in plasma (T1D rats [1]; T1D rats treated with MIA-602 vs vehicle-treated STZ diabetic animals, FIG. 2B): lower
VLDL/LDL-cholesterol in plasma (T1D rats [1]; T1D rats treated with MIA-602 vs vehicle-treated STZ diabetic animals, FIG. 2C): lower
Plasma glucagon (T1D rats [1]; T1D rats, MIA-602 25 μg/kg s.c. three times a week for 14 weeks, p < 0.02 vs Diabetes): 55.9 ± 34.3^c pg/ml
Plasma GLP-1 (T1D rats [1]; T1D rats, MIA-602 25 μg/kg s.c. three times a week for 14 weeks, p < 0.05 vs Diabetes): 48.7 ± 25.2^e pg/ml
MCP-1 serum levels (T1D rats [1]; T1D rats, MIA-602 treatment, FIG. 5C): reduced
Plasma triglyceride levels (T1D rats [1]; T1D rats, MIA-602 treatment, p<0.01 vs. STZ (89.3±4.2), n=6 per group): 82.3 ± 2.8 mg/dL
Plasma glucose (T1D rats [1]; T1D rats, non-fasting, MIA-602 25 μg/kg s.c. three times a week for 14 weeks, no insulin): 603 ± 137.4^b mg/dl
Blunting of GHRH receptor expression in jejunum-ileum (Western blot densitometry) (GHRH receptor): approximately 5 fold
GLP-1 receptor expression in distal small intestine and liver (GLP-1 receptor): unaffected
ApoB-48 released into medium ([2]; oleic acid (0.5 mM)-treated IEC, no insulin, agent alone at 1 μM, no GLP-1 agonist, oleic acid alone 6.67±0.26): 3.43 ± 0.15 µg/mL
ApoB-48 released into medium ([2]; oleic acid-treated IEC, MIA-602 (1 μM) in the presence of JI-34 and exendin-4): 4.47 ± 0.46 µg/mL
Proteinuria (albumin/creatinine ratio) (T1D rats [3]; FIG. 5A): reduced
α-sma expression in kidney cortex (T1D rats [3]; Western blot, FIG. 5B): reduced
Responses to the endothelial-independent vasodilator sodium nitroprusside (SNP) [4]: similar
Plasma Dipeptidyl-Peptidase 4 (DPP4) activity [5]: reduced
Barrier function [6]: slightly decreased

exendin 9-39
ApoB-48 released into medium ([2]; oleic acid-treated IEC, exendin 9-39 (100 nM) together with MIA-602 (1 μM), MIA-602 alone 3.43±0.15): 7.56 ± 0.53 µg/mL
ApoB-48 released into medium ([2]; oleic acid-treated IEC, pretreatment 100 nM, then exendin-4 (10 nM), exendin-4 alone 4.44±0.36): 8.78 ± 0.34 µg/mL

exendin-4: GLP-1 receptor agonist (Sigma-Aldrich)
ApoB-48 released into medium ([2]; oleic acid (0.5 mM)-treated IEC, no insulin, agent alone at 10 nM, oleic acid alone 6.67±0.26, medium alone 3.48±0.98): 4.44 ± 0.36 µg/mL
